Measurements published in ChEMBL document CHEMBL3856267, “Identification of 5,6-dihydroimidazo[2,1-b]thiazoles as a new class of antimicrobial agents” (Bioorg Med Chem, 2016).
Calls of active or inactive are those of the source. The rule behind the calls is not given here.

What was measured:
Staphylococcus aureus [1] = assay: Antimicrobial activity against methicillin-resistant Staphylococcus aureus ATCC BAA-44 measured after overnight incubation by microdilution broth method; format: functional
Staphylococcus aureus [2] = assay: Antimicrobial activity against methicillin-resistant Staphylococcus aureus ATCC 33591 measured after overnight incubation by microdilution broth method; format: functional
[3] = Antimicrobial activity against vancomycin-intermediate Staphylococcus aureus Mu50 ATCC 700699 measured after overnight incubation by microdilution broth method; format: functional, Staphylococcus aureus subsp. aureus Mu50
Staphylococcus aureus [4] = assay: Growth inhibition of methicillin-resistant Staphylococcus aureus ATCC 33591 at 64 ug/ml measured after overnight incubation by microdilution broth method relative to control; format: functional; details: read-out: GI
[5] = Selectivity ratio of MIC90 for methicillin-resistant Staphylococcus aureus ATCC 33591 to MIC90 for methicillin-resistant Staphylococcus aureus ATCC BAA-44; format: functional
[6] = Hemolytic activity in human RBC at 128 ug/ml after 1 hr; format: ADME, cell-based, Erythrocyte; details: red blood cells, read-out: Activity
[7] = Cytotoxicity against HEK cells assessed as reduction in cell viability after 48 hrs by MTT assay; format: toxicity, cell-based, HEK293; details: human, read-out: MIC50
[8] = Selectivity ratio of MIC90 for vancomycin-intermediate Staphylococcus aureus Mu50 ATCC 700699 to MIC90 for methicillin-resistant Staphylococcus aureus ATCC BAA-44; format: functional
[9] = Therapeutic index, ratio of IC50 for HEK cells to MIC90 for methicillin-resistant Staphylococcus aureus ATCC BAA-44; format: cell-based, HEK293; details: human, read-out: TI
Staphylococcus aureus [10] = assay: Inhibition of Staphylococcus aureus DNA gyrase assessed as reduction in supercoiling of relaxed pHOT-1 after 30 mins by SDS based agarose gel electrophoresis
Staphylococcus aureus [11] = assay: Antimicrobial activity against methicillin-resistant Staphylococcus aureus USA300-0114 infected in Galleria Mellonella assessed as increase in survival of worms at 5 times MIC measured 24 to 48 hrs post dose; format: functional
Staphylococcus aureus [12] = assay: Antimicrobial activity against methicillin-resistant Staphylococcus aureus USA300-0114 infected in Galleria Mellonella assessed as increase in larvae survival at 10 times MIC measured 24 to 48 hrs post dose; format: functional

Row | Compound | MIC90 (Staphylococcus aureus [1]) | MIC90 (Staphylococcus aureus [2]) | MIC90 [3] | inhibition of growth at 64 µg/mL (Staphylococcus aureus [4]) [%] | Selectivity ratio [5] | hemolysis at 1 h, 128 ug/ml [6] [%] | CC50 at 48 h [7] [µM] | Selectivity ratio [8] | selectivity ratio [9] | inhibition (Staphylococcus aureus [10]) | Activity (Staphylococcus aureus [11]) | Activity (Staphylococcus aureus [12])
1 | CN[C@H](CC(C)C)C(=O)N[C@H]1C(=O)N[C@@H](CC(N)=O)C(=O)N[C@H]2C(=O)N[C@H]3C(=O)N[C@H](C(=O)N[C@H](C(=O)O)c4cc(O)cc(O)c4-c4cc3ccc4O)[C@H](O)c3ccc(c(Cl)c3)Oc3cc2cc(c3O[C@@H]2O[C@H](CO)[C@@H](O)[C@H](O)[C@H]2O[C@H]2C[C@](C)(N)[C@H](O)[C@H](C)O2)Oc2ccc(cc2Cl)[C@H]1O [VANCOMYCIN] | 4 µg/mL | 2 µg/mL | 8 µg/mL |  |  |  |  |  |  |  |  | 
2 | N=C(N)NCCC[C@H]1CN2C(c3ccc4ccccc4c3)=CSC2=N1 | 182 µM | 364 µM |  | > 80 | 2 | < 2 |  |  |  |  |  | 
3 | Oc1ccc(C[C@H]2CN3C(=N2)SC(c2ccccc2)=C3c2ccccc2)cc1 | 42 µM | 84 µM |  | > 80 | 2 | < 2 |  |  |  |  |  | 
4 | CC(C)C[C@@H]1CN2C(=N1)SC(c1ccccc1)=C2c1ccccc1 | 11 µM | 12 µM | 24 µM |  |  | < 2 | 56 | 2 | 5 | Dose-dependent effect | Active | Active
5 | Oc1ccc(C[C@@H]2CN3C(=N2)SC(c2ccccc2)=C3c2ccccc2)cc1 | 31 µM | 20 µM | 40 µM |  |  | < 2 | 72 | 2 | 2.3 |  |  | 
6 | Cn1cc(C[C@H]2CN3C(=N2)SC(c2ccccc2)=C3c2ccccc2)c2ccccc21 | 19 µM | 151 µM |  | > 80 | 2 | < 2 |  |  |  |  |  | 
7 | Cn1cc(C[C@@H]2CN3C(c4ccc5ccccc5c4)=CSC3=N2)c2ccccc21 | 10 µM | 10 µM | 40 µM |  |  | < 2 | 20 | 2 | 2 |  |  | 
8 | CC(C)C[C@@H]1CN2C(c3ccc4ccccc4c3)=CSC2=N1 | 51 µM | 51 µM | 102 µM |  |  | < 2 | 36 | 2 | 0.7 |  |  | 
9 | COc1cccc(OC)c1C(=O)N[C@@H]1C(=O)N2[C@@H]1SC(C)(C)[C@@H]2C(=O)O [METHICILLIN] | > 128 µg/mL | > 128 µg/mL | > 128 µg/mL |  |  |  |  |  |  |  |  | 
10 | N=C(N)NCCC[C@@H]1CN2C(c3ccc4ccccc4c3)=CSC2=N1 | 69 µM | 69 µM | 184 µM |  |  | < 2 | 257 | 2 | 3.7 |  |  | 
11 | Cn1cc(C[C@H]2CN3C(c4ccc5ccccc5c4)=CSC3=N2)c2ccccc21 | 20 µM | 162 µM |  | > 80 | 2 | < 2 |  |  |  |  |  | 
12 | c1ccc(C[C@H]2CN3C(=N2)SC(c2ccccc2)=C3c2ccccc2)cc1 | 21 µM | 173 µM |  | > 80 | 2 | < 2 |  |  |  |  |  | 
13 | N=C(N)NCCC[C@@H]1CN2C(=N1)SC(c1ccccc1)=C2c1ccccc1 | 338 µM | 111 µM | 338 µM |  |  | < 2 | 100 | 2 | 0.3 |  |  | 
14 | c1ccc(C[C@@H]2CN3C(=N2)SC(c2ccccc2)=C3c2ccccc2)cc1 | 14.6 µM | 21 µM | 42 µM |  |  | < 2 | 71 | 2 | 4.9 |  |  | 
15 | CC(C)C[C@H]1CN2C(=N1)SC(c1ccccc1)=C2c1ccccc1 | 24 µM | 48 µM |  | > 80 | 2 | < 2 |  |  |  |  |  | 
16 | CC(C)C[C@H]1CN2C(c3ccc4ccccc4c3)=CSC2=N1 | 51 µM | 102 µM |  | > 80 | 2 | < 2 |  |  |  |  |  | 
17 | Cn1cc(C[C@@H]2CN3C(=N2)SC(c2ccccc2)=C3c2ccccc2)c2ccccc21 | 9.5 µM | 38 µM | 19 µM |  |  | < 2 | 63 | 2 | 6.6 |  |  | 
18 | N=C(N)NCCC[C@H]1CN2C(=N1)SC(c1ccccc1)=C2c1ccccc1 | 338 µM | 169 µM |  | > 80 | 2 | < 2 |  |  |  |  |  | 
